Test results reported in patent publication US7964560B2, “Hepatitis C virus inhibitors” (Bristol-Myers Squibb Company, priority 2008, dated 2011).

Experiments:
[1] = target: T1, HCV NS3/4A protease complex, J4L6S strain (Hepatitis C virus genotype 1b, UniProt O92972, C1454S/C1711G); test: FRET peptide assay to monitor HCV NS3/4A proteolytic activity (J4L6S strain); type: biochemical, Hepatitis C virus (1b genotype)
T1 construct: DNA encoding the recombinant HCV NS3/4A protease complex (amino acids 1027 to 1711) for these strains; His tag (inferred from pET21b vector and Ni-NTA purification); made in house; host or cells: Escherichia coli BL21 (DE3), pET21b
Excerpt: HCV […] protease complexes, derived from the BMS strain, H77 strain or J4L6S strain, were generated, as described below. These purified recombinant proteins were generated for use in a homogeneous assay (see below) to provide an indication of how effective compounds of the present disclosure would be in inhibiting HCV NS3 proteolytic activity.
Serum from an HCV-infected patient was obtained from Dr. T. Wright, San Francisco Hospital. An engineered full-length cDNA (compliment deoxyribonucleic acid) template of the HCV genome (BMS strain) was constructed from DNA fragments obtained by reverse transcription-PCR (RT-PCR) of serum RNA (ribonucleic acid) and using primers selected on the basis of homology between other genotype 1a strains. From the determination of the entire genome sequence, a genotype 1a was assigned to the HCV isolate according to the classification of Simmonds et al. (See Simmonds, P. et al., J. Clin. Microbiol., 31(6), 1493-1503 (1993)). […] The infectious clones, H77 (1a genotype) and J4L6S (1b genotype) were obtained from R. Purcell (NIH) and the sequences are published in GENBANK® (AAB67036, see Yanagi, M. et al., Proc. Natl. Acad. Sci. U.S.A., 94(16):8738-8743 (1997); AF054247, see Yanagi, M. et al., Virology, 244(1):161-172 (1998)).
The H77 and J4L6S strains were used for production of recombinant NS3/4A protease complexes. […]

[2] = target: T2, human neutrophil elastase (HNE) (Homo sapiens, UniProt P08246); test: Specificity assay, human neutrophil elastase; type: biochemical; conditions: read-out: HLE (specificity assay IC50)
T2 construct: purchased Sigma, EMDbiosciences
T2 sequence (P08246 30-267): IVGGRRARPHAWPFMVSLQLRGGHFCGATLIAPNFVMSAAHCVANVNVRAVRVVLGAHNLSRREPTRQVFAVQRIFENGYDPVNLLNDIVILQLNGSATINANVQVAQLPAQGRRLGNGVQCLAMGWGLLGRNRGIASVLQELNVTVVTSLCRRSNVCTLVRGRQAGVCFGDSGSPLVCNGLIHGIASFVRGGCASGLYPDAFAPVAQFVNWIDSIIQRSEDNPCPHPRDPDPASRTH
Experimental: (§1) The specificities of compounds of the present disclosure were determined against a variety of serine proteases: human neutrophil elastase (HNE), porcine pancreatic elastase (PPE) and human pancreatic chymotrypsin and one cysteine protease: human liver cathepsin B. In all cases a 96-well plate format protocol using a fluorometric Amino-Methyl-Coumarin (AMC) substrate specific for each enzyme was used as described previously (PCT Patent Application No. WO 00/09543) with some modifications to the serine protease assays. All enzymes were purchased from Sigma, EMDbiosciences while the substrates were from Bachem, Sigma and EMDbiosciences.
(§2) Compound concentrations varied from 100 to 0.4 μM depending on their potency. The enzyme assays were each initiated by addition of substrate to enzyme-inhibitor pre-incubated for 10 min at room temperature and hydrolysis to 15% conversion as measured on CYTOFLUOR®.
50 mM Tris-HCl, pH 8.0, 50 mM NaCl, 0.1 mM […], 3% DMSO, 0.02% Tween-20, 5 μM succ-AAPV-AMC and 20 nM HNE or 8 nM PPE;
(§3) The percentage of inhibition was calculated using the formula: [1−((UVinh−UVblank)/(UVctl−UVblank))]×100
(§4) A non-linear curve fit was applied to the inhibition-concentration data, and the 50% effective concentration (IC50) was calculated by the use of Excel XLfit software.

[3] = target: T3, human pancreatic chymotrypsin (Homo sapiens, UniProt P17538); test: Specificity assay, chymotrypsin; type: biochemical
T3 construct: purchased Sigma, EMDbiosciences
Experimental: as §1, §2
50 mM Tris(hydroxymethyl)aminomethane hydrochloride (Tris-HCl) pH 8, 0.5 M Sodium Sulfate (Na2SO4), 50 mM NaCl, 0.1 mM EDTA, 3% DMSO, 0.01% Tween-20 with 5 μM LLVY-AMC and 1 nM Chymotrypsin.
as §3, §4

T1 sequence (O92972 1027-1711 C1454S/C1711G, one chain of several): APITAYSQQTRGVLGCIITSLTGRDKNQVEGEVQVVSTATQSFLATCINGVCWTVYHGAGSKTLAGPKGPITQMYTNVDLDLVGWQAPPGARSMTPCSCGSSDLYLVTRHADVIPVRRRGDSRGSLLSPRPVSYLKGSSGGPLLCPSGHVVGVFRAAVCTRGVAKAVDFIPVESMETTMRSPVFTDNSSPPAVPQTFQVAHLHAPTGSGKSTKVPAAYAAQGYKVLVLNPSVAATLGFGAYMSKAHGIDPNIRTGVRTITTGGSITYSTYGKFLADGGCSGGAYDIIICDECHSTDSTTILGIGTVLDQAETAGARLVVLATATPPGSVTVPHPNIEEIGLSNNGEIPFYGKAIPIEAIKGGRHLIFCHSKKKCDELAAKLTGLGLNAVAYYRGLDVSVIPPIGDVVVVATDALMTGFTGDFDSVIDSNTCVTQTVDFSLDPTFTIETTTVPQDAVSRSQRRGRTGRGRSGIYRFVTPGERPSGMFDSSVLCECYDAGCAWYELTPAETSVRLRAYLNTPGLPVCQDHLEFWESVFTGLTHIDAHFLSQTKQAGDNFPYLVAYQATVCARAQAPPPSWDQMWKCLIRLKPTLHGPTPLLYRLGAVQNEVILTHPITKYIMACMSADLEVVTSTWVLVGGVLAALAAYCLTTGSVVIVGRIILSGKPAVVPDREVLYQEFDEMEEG
T3 sequence (P17538 19-263): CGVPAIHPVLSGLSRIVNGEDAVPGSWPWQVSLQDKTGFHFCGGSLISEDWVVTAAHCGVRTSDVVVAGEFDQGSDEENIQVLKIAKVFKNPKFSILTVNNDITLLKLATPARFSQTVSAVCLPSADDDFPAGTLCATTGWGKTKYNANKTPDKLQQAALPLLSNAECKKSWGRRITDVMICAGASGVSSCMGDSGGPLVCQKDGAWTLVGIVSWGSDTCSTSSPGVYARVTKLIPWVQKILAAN

C=C[C@@H]1C[C@]1(NC(=O)[C@@H]1C[C@@](SCCCC)(c2ccc(-c3ccccc3)cc2)CN1C(=O)[C@@H](NC(=O)OC(C)(C)C)C(C)(C)C)C(=O)NS(=O)(=O)C1CC1 [Example 1, tert-butyl (S)-1-((2S,4R)-4-(biphenyl-4-yl)-4-(butylthio)-2-((1R,2S)-1-(cyclopropylsulfonylcarbamoyl)-2-vinylcyclopropylcarbamoyl)pyrrolidin-1-yl)-3,3-dimethyl-1-oxobutan-2-ylcarbamate]
IC50 [1]: 0.0011 µM | IC50 [2]: > 12.1 µM | IC50 [3]: 13.2 µM
